Tests used:
[1] = test system: Monocrotaline (MCT) lung injury model of Pulmonary Arterial Hypertension; assay: Survival in the Monocrotaline (MCT) lung injury model of Pulmonary Arterial Hypertension (Kaplan-Meier curves, 28 days); type: in vivo, rat; settings: MCT rats; for survival (survival curve): compared to MCT group
Excerpt: (§1) One of the most-used animal models is the Monocrotaline (MCT) lung injury model of Pulmonary Arterial Hypertension. Administration of MCT, that is metabolized in the liver to the reactive metabolite dehydromonocrotaline, results in a syndrome characterized by acute lung injury, interstitial pulmonary fibrosis, necrotizing pulmonary arteritis, pulmonary hypertension, right ventricular (RV) hypertrophy, myocarditis and hepatic venoocclusive disease.
(§2) The protocol to use is a standard one (Curr. Protoc. Pharmacol. 46:5.56.1-5.56.11(2009) John Wiley & Sons Inc). Rats, of 6-7 weeks old (150-200 g) are administered MCT 60 mg/kg subcutaneously, and the pathology usually develops in the course of initial 3 to 4 weeks with the animals dying within the next 2 weeks (5th-6th week). A decrease of 50% in food and water consumption is thought to be indicative of pathological status severe enough for testing.
Two studies were conducted separately and a combination analysis performed on the two studies. Each study consisted in the scheme represented in FIG. 1.
The experimental design of both studies was the same, with animals randomized in seven groups, five groups of 10 animals each (MCT, MCT+Bos300, MCT+Bos100, MCT+Compound B, MCT+Compound B+Bos100) and 2 groups of 6 animals each (SHAM and SHAM+Compound B).
The experimental details are described in more detail below; briefly, compounds were given to rats mixed with food starting, Compound B (30 mg/kg/day) for groups MCT+Compound B and SHAM+Compound B, bosentan (300 mg/kg/day) for group MCT+Bos300, bosentan (100 mg/kg/day) for group MCT+Bos100, Compound B+bosentan (30+100 mg/kg/day) for group MCT+Compound B+Bos100, and no compound for groups MCT and SHAM. Animals from groups MCT were administered MCT and animals from groups SHAM were administered vehicle. Twenty eight days later, surviving animals were sacrificed, tissues collected and weighed. During the entire experimental period food, water consumption and animal weight were monitored. The ratios organ weight to body weight (BW) were calculated to evaluate organ hypertrophy. The index of RV/LV+S was calculated as an index of RV hypertrophy. […]
Animals were given powdered food for an adaptation period of 3-5 days before treatment start. […] Food, water consumption and animal weight were monitored over the entire duration of the experiment.
Animals were given powdered food for an adaptation period of 3-5 days before treatment start. […] Animal weight, food and water consumption were evaluated twice a week and animals were regularly observed for any disease signs. Mortality was registered and on day 28 surviving animals were sacrificed, selected organs weighed and femurs removed and measured. […]

[2] = test system: Monocrotaline (MCT) lung injury model of Pulmonary Arterial Hypertension; assay: Cardiac remodelling (organ weight ratios, Fulton index) in the MCT lung injury model of PAH; type: in vivo, rat; settings: compared to MCT group; for right ventricular hypertrophy: 28 days
Excerpt: as §1, §2
The experimental details are described in more detail below; briefly, compounds were given to rats mixed with food starting, Compound B (30 mg/kg/day) for groups MCT+Compound B and SHAM+Compound B, bosentan (300 mg/kg/day) for group MCT+Bos300, bosentan (100 mg/kg/day) for group MCT+Bos100, Compound B+bosentan (30+100 mg/kg/day) for group MCT+Compound B+Bos100, and no compound for groups MCT and SHAM. Animals from groups MCT were administered MCT and animals from groups SHAM were administered vehicle. Twenty eight days later, surviving animals were sacrificed, tissues collected and weighed. During the entire experimental period food, water consumption and animal weight were monitored. The ratios organ weight to body weight (BW) were calculated to evaluate organ hypertrophy. The index of RV/LV+S was calculated as an index of RV hypertrophy. In each study an n=10 animals was used for each MCT treatment group, and an n=6 was used for the groups not given MCT. The animals from MCT+Bos300 group from Study 1 were not considered for the combined survival analysis since these unexpectedly presented a higher mortality effect as compared to the MCT group. The surviving animals from this group were nevertheless considered for the cardiac remodelling analysis.
All data is expressed as mean±sem (Standard Error of the Mean) unless otherwise indicated. Differences between treatment groups were analysed by one-way ANOVA and post-hoc Newman-Keuls multiple comparison test. P<0.05 was considered statistically significant.
On day 28 surviving animals were sacrificed and the following tissues/organs collected and weighed: liver, kidney, lung, heart and spleen. Femurs were removed and measured. Heart was dissected into right ventricle, left ventricle+septum and these were also weighed. The ratio organ to body weight (BW) was calculated as well as the ratio organ weight to femur length. The index of RV/LV+S is an index of RV hypertrophy. Catecholamines were evaluated only on right ventricle and left ventricle+septum.
Whole spleen, whole liver, left kidney and lungs were removed, cleaned and weighed. Heart was removed, cleaned from atria and vascular tissue and weighed. Right ventricle was then dissected from the rest of the heart (left ventricle +septum) and both were weighed and put in tubes containing 0.2 M PCA. Femurs were removed, cleaned and length measured with a calliper.
The ratios organ weight to body weight and organ weight to femur length were calculated as well as the ratio right ventricular weight to left ventricular+septum weight.
Organs weighed were: liver, kidney, lung, heart and spleen. Heart was dissected into right ventricle, left ventricle+septum and these were also weighed. The ratio organ to body weight (BW) was calculated as well as the ratio organ weight to femur length. The index of RV/LV+S is an index of RV hypertrophy.
Whole spleen, whole liver, both kidneys and lungs were removed, cleaned and weighed. Heart was removed, cleaned from atria and vascular tissue and weighed. […]

[3] = Compound B alone 30 mg/kg/day, 28 days after MCT
[4] = Bosentan 300 mg/kg/day, 28 days after MCT

Fc1cc(F)c2c(c1)C[C@@H](n1c(CCNCc3ccccc3)c[nH]c1=S)CO2 [Compound B, (R)-5-(2-(benzylamino)ethyl)-1-(6,8-difluorochroman-3-yl)-1H-imidazole-2(3H)-thione]
survival (survival curve) ([1]; Compound B 30 mg/kg/day in food): slight increase in survival
survival rates compared to the use of bosentan alone ([1]; Compound B alone 30 mg/kg/day): greater survival rates
right ventricular hypertrophy ([2]; Compound B 30 mg/kg/day): significant decreased
Fulton Index (RV/LV+S) [2, 3]: significantly decreased
heart weight over bodyweight (BW) [2, 3]: significantly decreased
right ventricle (RV) weight over bodyweight (BW) [2, 3]: significantly decreased

COc1ccccc1Oc1c(NS(=O)(=O)c2ccc(C(C)(C)C)cc2)nc(-c2ncccn2)nc1OCCO [bosentan, Bosentan]
survival (survival curve) ([1]; bosentan 100 mg/kg/day in food): No clear benefit
survival (survival curve) ([1]; bosentan 300 mg/kg/day in food): No clear benefit
Fulton Index (RV/LV+S) [2, 4]: significantly decreased
right ventricle (RV) weight over bodyweight (BW) [2, 4]: significantly decreased
right ventricular hypertrophy ([2]; bosentan 100 mg/kg/day (MCT+Bos100)): significant decreased
right ventricular hypertrophy ([2]; bosentan 300 mg/kg/day (MCT+Bos300)): marked and statistically significant decrease

Reference: patent US10308640B2, “1,3-dihydroimidazole-2-thione derivatives for use in the treatment of pulmonary arterial hypertension and lung injury” (BIAL—PORTELA & CA S.A., priority 2012, dated 2019)
